# Laboratory results: PubChem BioAssay AID1117361 (Southern Research Institute, 2015)
# Target: Protein Tat (Human immunodeficiency virus type 1 group M subtype B (isolate HXB2)) (UniProt P04608)
# Experiment: HIV-1 Tat–TAR interaction blockers – biochemical, fluorescence polarization, FAM-labeled TAR RNA, counter-screen for Vif-APOBEC3G degradation inhibitor project, dose response (AID 1117361)
# Conditions: Tat-TAR RNA binding
# Sequence of Protein Tat (Human immunodeficiency virus type 1 group M subtype B (isolate HXB2)) (P04608 whole entry, looked up): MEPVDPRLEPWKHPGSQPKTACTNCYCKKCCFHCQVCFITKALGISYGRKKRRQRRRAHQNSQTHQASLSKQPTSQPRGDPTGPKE
row,SMILES,IC50
1,Cc1ccc(SCCN2C(=O)NC(C)(C)C2=O)cc1,24.8 µM
2,O=C(NCCO)c1ccc2nc(-c3ccco3)c(-c3ccco3)nc2c1,7.34 µM
3,Cc1cc([N+](=O)[O-])cc2c1NC(c1ccccn1)C1CC=CC21 (stereo not given),49.1 µM
4,O=[N+]([O-])c1c(NCCCO)cc(SCc2ccco2)c2nonc12,16.5 µM
5,COc1ccc(OC)c(N2C(=O)[C@@H]3C(c4ccccc4Cl)=NO[C@@H]3C2=O)c1,82.1 µM
6,O=C(O)C1Nc2c(O)cccc2C2C=CCC12 (stereo not given),0.703 µM
7,COC/C=C/C1=CC2=CC(=O)C(C)(OC(=O)c3ccco3)C(=O)C2=CO1 (stereo not given),7.47 µM
8,Cc1ccc(C(=O)N/N=C\c2cc(Br)c(Br)o2)cn1,2.34 µM
9,CC(/C=N/n1c(-c2ccncc2)n[nH]c1=S)=C\c1ccco1,8.22 µM
10,O=C(O)c1c2c(nc3ccc(Cl)cc13)CCC2,13.2 µM
11,CN1CCN(C2=C(Cl)C(=O)c3ccccc3C2=O)CC1,40 µM
12,Oc1cc2c(cc1O)[C@H]1c3ccc(O)c(O)c3OC[C@@]1(O)C2,15.7 µM
13,O=C(CN1C(=O)NC2(CCCCCCC2)C1=O)NCc1cccs1,36.5 µM
14,COC(=O)CCC(=O)OC1(C)C(=O)C2=COC(c3ccc(OC)cc3)=CC2=C(Br)C1=O (stereo not given),13 µM
15,O=C(N/N=C/c1cn(Cc2cccc(F)c2)c2ccccc12)c1cc(O)cc(O)c1,15 µM
16,O=C(O)C1Nc2ccc(Br)cc2C2C=CCC12 (stereo not given),3.73 µM
17,C=C(C)C(=O)Nc1cccc(C2=NOC3(C2)C[C@H](C(N)=O)N(C(=O)COc2ccc(Cl)cc2)C3)c1 (stereo not given in full),17.3 µM
18,CCN1CCN(c2cc(N3CCN(C(=O)c4ccco4)CC3)c3c4c(onc24)-c2ccccc2C3=O)CC1,5.77 µM
19,O=C(NCCCO)Nc1ccc2nc(-c3ccco3)c(-c3ccco3)nc2c1,2.01 µM
20,O=C1NC(=O)N(c2ccc(Cl)cc2)C(=O)/C1=C\c1ccc(Sc2nc3ccccc3[nH]2)o1,3.41 µM
21,O=S(=O)(c1ccc2nc(-c3ccco3)c(-c3ccco3)nc2c1)N1CCOCC1,44.9 µM
22,Cc1ccc(/C=c2\sc3nc(-c4cccs4)nn3c2=O)o1,13.6 µM
23,CC(=O)c1ccc(NC(=O)CSc2nnc(-c3ccco3)c(-c3ccco3)n2)cc1,6.61 µM

row,SMILES,IC50
1,COC(=O)c1ccccc1NC(=O)C1CCCC1,4.92 µM
2,Oc1ccc(-c2cn3c(n2)SCC3)cc1O,71.9 µM
3,O=C1/C(=C/c2ccco2)SC(=S)N1c1cccnc1,3.9 µM
4,O=c1c(O)cccc2cc(O)c(O)c(O)c12,3.96 µM
5,Cc1cc(C)nc(N2CCC(C(=O)O)CC2)n1,72.8 µM
6,O=C1CC(=O)N(Cc2ccco2)C(=O)N1,14.6 µM
7,CN(C)[C@@H]1C(=O)C(C(=O)NCN2CCCC2)=C(O)[C@@]2(O)C(=O)C3=C(O)c4c(O)cccc4[C@@](C)(O)C3CC12 (stereo not given in full),2.46 µM
8,CC(=O)NN1C(=O)/C(=C\c2ccc(Br)o2)SC1=S,4.82 µM
9,Cc1cc(-c2n[nH]c(=S)n2/N=C/C=C/c2ccco2)n[nH]1,18.6 µM
10,COc1ccc(C2=CC(c3ccc(Cl)cc3)n3cnnc3N2)cc1OC (stereo not given),6.19 µM
11,Cc1ccc[n+](-c2[nH]c(=O)sc2/C=N/NC(=O)c2ccccc2[O-])c1,22.1 µM
12,Cc1cccc(NC(=O)CNC(=O)c2cccc(-n3cccc3)c2)c1C,63.3 µM
13,C=C(C)C(=O)Nc1cccc(C2=NOC3(C2)C[C@H](C(N)=O)N(C(=O)C(c2ccccc2)c2ccccc2)C3)c1 (stereo not given in full),31.7 µM
14,O=C(Nc1ccccc1)c1ccc2nc(-c3ccco3)c(-c3ccco3)nc2c1,7.63 µM
15,CCNc1ccc(Br)cc(C(=O)/C=C/c2ccc(Cl)cc2)c1=O,12.5 µM
16,Nc1ccc(Nc2ccccc2)c(S(=O)(=O)O)c1,31.4 µM
17,CC(C)c1ccc(/C=C/C(=O)N2CCc3ccccc3C2)cc1,33.7 µM
18,O=C(Cc1ccccc1)NC(Nc1ccccc1)C(Cl)(Cl)Cl (stereo not given),87.8 µM
19,CNC(=O)c1ccccc1NC(=O)c1ccc(C)c(S(=O)(=O)N2CCCCC2)c1,0.969 µM
20,CCC1=NN2C(=N)/C(=C\c3ccc(SCc4ccco4)o3)C(=O)N=C2S1,63.3 µM
21,CCOC(=O)CSc1nncc2ccc(OC)c(OC)c12,56.6 µM
22,COc1ccc(NC(=O)c2cccc(S(=O)(=O)Nc3ccc(Br)cc3)c2)cn1,2.15 µM
